Test results reported in article PMC5841658, “Anti-cancer characteristics and ototoxicity of platinum(II) amine complexes with only one leaving ligand” (PLoS ONE, 2018).

Legend:
[1] = system: zebrafish saccule hair cells; assay: Hair cell quantification, saccule; assay type: in vivo, Danio rerio; settings: 25 mg/kg i.p., 48 hours; for effect on hair cell density in four regions of the saccule compared to vehicle: 5, 25, 50, 75% regions
Method: (§1) Zebrafish (Danio rerio) were purchased from a commercial supplier (Segrest Farms, Gibsonton, FL) and maintained in the animal facility of Western Kentucky University according to a protocol approved by the Institutional Animal Care and Use Committee. All zebrafish used in this study were a mix of male and female adult animals at least 6 months of age and were maintained according to standard methods.
(§2) After injection, fish were returned to holding tanks for either 24 or 48 hours and then subjected to hearing tests followed by hair cell quantification analysis.
Hair cell counts were performed from specific regions of the zebrafish saccule and utricle using established procedures. […] Prior to dissection, heads were rinsed three times for 10 minutes each at room temperature in phosphate buffer (pH 7.4, LabChem, Pittsburgh, PA) and the inner ear epithelia (saccule and utricle) were then carefully dissected out and trimmed. […] Tissue samples were then placed on glass slides and nuclei were labelled with Prolong Gold antifade reagent (4’,6-diamidino-2-phenylindole [DAPI], Life Technologies, Carlsbad, CA) and a cover-slip was placed over the samples for microscopy.
Saccule and utricle samples were viewed through the FITC filter of a Zeiss Axioplan2 epifluorescence microscope (Carl Zeiss, Jena, Germany) at 20X magnification and were then photographed using an AxioCam MRm camera. Cell counts were made from four regions of the saccule (5%, 25%, 50%, 75%) along the rostral-caudal length of the organ by placing a 50 μm x 50 μm box at each location and using the microscope cell counter feature. In the utricular samples, cell counts were made from three equidistant 50 μm x 50 μm boxes in both the extrastriolar and striolar regions.
(§3) GraphPad Prism v6 (La Jolla, CA) was used for all statistical analysis. Nuclear fraction platinum uptake as a total percent of combined nuclear and cytosolic uptake was analyzed using a one-way ANOVA (Brown-Forsyth test; p ≤ 0.05). IC50 values were calculated in Prism using the sigmoidal, 4PL, x is log(concentration) analysis feature or were calculated from Prism derived values using the equation y = mx + b. MTT assay standard deviation values were calculated using ED50plus v1.0 online software. AEP threshold data were analyzed by two-way ANOVA (Dunnett’s multiple comparisons test; p ≤ 0.05) and hair cell quantification data by two-way ANOVA (Tukey’s multiple comparisons test; p ≤ 0.05). AEP temporary threshold shifts (TTS) were calculated by subtracting the mean vehicle threshold for each frequency from each treatment threshold. TTS data were averaged across frequencies for each treatment and were analyzed by one-way ANOVA (Tukey’s multiple comparisons test; p ≤ 0.05).

[2] = system: U-138 MG (HTB-16) glioblastoma cancer cell line; assay: MTT cellular viability assay, HTB16; assay type: cell-based; settings: HTB16 (glioma), 72 hours, ± standard deviation
Method: (§4) Cell lines were obtained from American Type Culture Collection (ATCC, Manassas, VA). […] Caco-2 (ATCC: HTB-37) colorectal cancer was grown in EMEM with 20% FBS and 1% penicillin/streptomycin. All cell lines were incubated at 37°C in 5% CO2 with passaging every 4–7 days. Cell culture media and supplements were obtained from ATCC, Atlanta Biologicals (Flowery Branch, GA), Mediatech (Tewksbury, MA), Fisher Scientific (Waltham, MA), Gibco (Gaithersburg, MD) and Sigma-Aldrich.
(§5) The MTT (3-(4,5-dimethylthiazol-2-yl)-2,5-diphenyltetrazolium bromide) cellular viability assay was performed in all three cancer cell lines and the non-cancer cell line. Following a protocol adapted from, cells were seeded at 5,000 cells per well in 96-well plates and incubated at 37°C in 5% CO2 in F-12K Medium or EMEM with FBS supplementation and 1% penicillin/streptomycin for 24 hours. Then, wells were treated in replicates of six according to a concentration series (500, 50, 5, 0.5, 0.05 μM) of specific platinum complexes for 72 hours. A negative control (media only), positive control (Triton X-100) and series of blanks were simultaneously performed. The MTT assay was run for 2 hours, then well contents were rapidly evacuated out and all wells were treated with MTT solubilization solution [10% Triton X-100 in acidic (0.1N HCl) isopropanol] for 15 minutes before the plates were read using a BioTek Synergy HT microplate plate reader (570 nm and 690 nm absorbance wavelengths). Reagents, cell culture media and supplements were obtained from ATCC, Atlanta Biologicals, Mediatech, Fisher Scientific, Gibco and Sigma-Aldrich.
as §3

[3] = system: IMR-90 lung fibroblast control cell line; assay: MTT cellular viability assay, IMR90; assay type: cell-based; settings: IMR90 (fibroblast, non-cancer), 72 hours, ± standard deviation
Method: as §4, §5, §3

[4] = system: Caco-2 colorectal cancer cell line; assay: MTT cellular viability assay, Caco2; assay type: cell-based; settings: 72 hours, ± standard deviation
Method: as §4, §5, §3

[5] = system: zebrafish hearing thresholds; assay: Auditory evoked potential (AEP) testing in zebrafish inner ear model; assay type: in vivo, Danio rerio; settings: 25 mg/kg i.p.; for mean (± S.E.) temporary threshold shift (TTS), averaged across frequencies: 48 hours, vehicle threshold subtracted; for AEP hearing threshold, significance of pairwise comparison against cisplatin / AEP hearing threshold, significance of pairwise comparison against vehicle: 48 h
Method: as §1, §2
Auditory evoked potential (AEP) testing was performed on individual fish according to standard protocols. […] After harness placement was complete, three 27 gauge stainless steel electrodes (Rochester Electro-Medical, Inc., Lutz, FL) were inserted approximately 2 mm subdermally to record AEPs. A reference electrode was inserted into the medial dorsal surface of the head, a recording electrode directly over the brainstem and a ground electrode in the tail musculature. Sound stimuli (tone pips) were presented to each fish at 8 frequencies (100, 250, 400, 600, 800, 1000, 1500 and 3000 Hz) and AEP waveforms were collected using a TDT System III physiology apparatus (Tucker-Davis Technologies Inc., Alachua, FL) running SigGen and BioSig software. Auditory stimuli were passed through a P1000 power amplifier (Hafler, Port Coquitlam, BC) and presented with a University Sound UW-30 underwater speaker (Electro-Voice, Fairport, NY). Sound pressure levels were confirmed using a Type 10CT hydrophone (G.R.A.S., Holte, Denmark) placed adjacent to the mesh harness. Auditory thresholds were determined in 5 dB increments by visual inspection of AEP waveforms.
as §3

Compound | effect on hair cell density in four regions of the saccule compared to vehicle [1] | IC50 [2] [µM] | IC50 [3] [µM] | IC50 [4] [µM] | mean (± S.E.) temporary threshold shift (TTS), averaged across frequencies [5] [dB] | AEP hearing threshold, significance of pairwise comparison against cisplatin ([5]; 100 Hz) | AEP hearing threshold, significance of pairwise comparison against vehicle ([5]; 100 Hz) | AEP hearing threshold, significance of pairwise comparison against cisplatin ([5]; 250 Hz) | AEP hearing threshold, significance of pairwise comparison against vehicle ([5]; 250 Hz) | AEP hearing threshold, significance of pairwise comparison against cisplatin ([5]; 400 Hz) | AEP hearing threshold, significance of pairwise comparison against vehicle ([5]; 400 Hz) | AEP hearing threshold, significance of pairwise comparison against cisplatin ([5]; 600 Hz) | AEP hearing threshold, significance of pairwise comparison against vehicle ([5]; 600 Hz) | AEP hearing threshold, significance of pairwise comparison against cisplatin ([5]; 800 Hz) | AEP hearing threshold, significance of pairwise comparison against vehicle ([5]; 800 Hz) | AEP hearing threshold, significance of pairwise comparison against cisplatin ([5]; 1000 Hz) | AEP hearing threshold, significance of pairwise comparison against vehicle ([5]; 1000 Hz) | AEP hearing threshold, significance of pairwise comparison against cisplatin ([5]; 1500 Hz) | AEP hearing threshold, significance of pairwise comparison against vehicle ([5]; 1500 Hz) | AEP hearing threshold, significance of pairwise comparison against cisplatin ([5]; 3000 Hz) | other results
[Cl][Pt-2]12[NH2+]CC[NH+]1CC[NH2+]2 (centres unmarked) [[Pt(dien)Cl]^+, Pt(diethylenetriamine)Cl] | no significant reduction in hair cell bundles | 209 ± 42.3 | 56 ± 6.1 | 41.5 ± 0.72 | 12.0 ± 3.0 | ns (ns, p > 0.05) | * (* p ≤ 0.05) | ns (ns, p > 0.05) | ns (ns, p > 0.05) | ns (ns, p > 0.05) | **** (**** p ≤ 0.0001) | ns (ns, p > 0.05) | **** (**** p ≤ 0.0001) | ns (ns, p > 0.05) | **** (**** p ≤ 0.0001) | ns (ns, p > 0.05) | **** (**** p ≤ 0.0001) | ns (ns, p > 0.05) | ns (ns, p > 0.05) | ns (ns, p > 0.05) | AEP hearing threshold, significance of pairwise comparison against vehicle ([5]; 3000 Hz): * (* p ≤ 0.05)
phenanthriplatin | reduction only at 50% | 2.41 ± 0.11 | 1.24 ± 0.48 | 1.6 ± 1.22 | 13.3 ± 2.9 | * (* p ≤ 0.05) | *** (*** p ≤ 0.001) | ns (ns, p > 0.05) | ns (ns, p > 0.05) | ns (ns, p > 0.05) | *** (*** p ≤ 0.001) | ns (ns, p > 0.05) | ** (** p ≤ 0.01) | * (* p ≤ 0.05) | **** (**** p ≤ 0.0001) | * (* p ≤ 0.05) | **** (**** p ≤ 0.0001) | ns (ns, p > 0.05) | ns (ns, p > 0.05) | ** (** p ≤ 0.01) | saccule hair cell density, % of control ([1]; 50% location along rostral-caudal axis): 64.8 % of control; mean (± S.E.) temporary threshold shift (TTS), averaged across frequencies ([5]; listed as phenanthriplatin): 13 dB; AEP hearing threshold, significance of pairwise comparison against vehicle ([5]; 3000 Hz): **** (**** p ≤ 0.0001)
